Experimental findings from PMC8496750, “Identification of the organic anion transporting polypeptides responsible for the hepatic uptake of the major metabolite of epyrifenacil, S‐3100‐CA, in mice” (Pharmacology Research & Perspectives, 2021) are described below.

The target of one data set is T1, mouse Oatp1a4 (Mus musculus, UniProt Q9EP96).
T1 sequence (Q9EP96 1-670): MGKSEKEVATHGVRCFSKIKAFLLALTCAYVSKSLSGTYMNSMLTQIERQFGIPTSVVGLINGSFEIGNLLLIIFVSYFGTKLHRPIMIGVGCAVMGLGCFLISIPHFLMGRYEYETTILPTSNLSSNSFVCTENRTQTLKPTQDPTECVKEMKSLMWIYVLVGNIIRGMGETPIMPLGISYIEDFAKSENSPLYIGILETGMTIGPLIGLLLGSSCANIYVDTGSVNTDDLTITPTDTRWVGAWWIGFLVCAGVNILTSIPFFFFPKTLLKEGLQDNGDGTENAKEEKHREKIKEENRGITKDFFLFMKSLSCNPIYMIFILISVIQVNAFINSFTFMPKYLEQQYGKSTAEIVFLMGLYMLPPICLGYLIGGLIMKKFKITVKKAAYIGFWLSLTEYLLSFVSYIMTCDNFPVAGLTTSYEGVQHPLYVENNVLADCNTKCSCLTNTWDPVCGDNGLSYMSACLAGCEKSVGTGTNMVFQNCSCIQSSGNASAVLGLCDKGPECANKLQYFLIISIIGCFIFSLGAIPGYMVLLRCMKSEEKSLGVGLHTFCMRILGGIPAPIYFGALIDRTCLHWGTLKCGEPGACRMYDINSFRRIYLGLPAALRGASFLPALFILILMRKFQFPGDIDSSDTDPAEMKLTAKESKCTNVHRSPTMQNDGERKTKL
The experiment in a line: Uptake assay for radiolabeled substrates, mouse Oatp1a4 expressing 293FT cells. Particulars: 10‐min incubation. The procedure:
(§1) 293FT cells were purchased from Thermo Fisher Scientific, Inc.. The cells were grown in Dulbecco's modified Eagle medium (supplemented with 4.5 g/L glucose and 2 mM L‐glutamine) at 37°C, 5% CO2, and 95% humidity. The cells were passaged 3 times per week by harvesting cells using trypsin and plating at a density of 1.0 × 10^4 cells/cm^2 in a 10 cm cell culture plate for maintenance culture. The 293FT cells were detached using trypsin and re‐seeded at a density of 2.5 × 10^4 cells/cm^2 in BioCoat™ Collagen I 6‐well plates (Corning Inc.) for transfection and then treated with 1.2 μg of plasmid vector and 3.2 μl of Lipofectamine™ 2000 Transfection Reagent (Thermo Fisher Scientific, Inc.) according to the manufacturer's instructions. After a 3‐h treatment, the transfection medium was replaced with a fresh cell culture medium and incubated at 37°C with 95% humidity and 5% CO2 until ready for the assay.
(§2) Transport experiments were conducted approximately 24 h post‐transfection. The experiments were initiated by aspirating culture medium and addition of pre‐warmed radiolabeled substrate solution (final 1.0% of acetonitrile or 0.9% of ethanol in phosphate‐buffered saline (PBS[−])) to each well. After a 10‐min incubation, cells were washed twice with 1 ml of ice‐cold PBS(−) and lysed with 700 μl of 1.0 M NaOH for 3 h or more at room temperature. The lysate was transferred to a 1.5‐ml tube, and neutralized with 350 μl of 2.0 M HCl and 350 μl of 2.0% sodium dodecyl sulfate (SDS) solution. From the lysate, 1.0 ml was transferred to a vial containing 10 ml of Emulsifier Scintillator Plus to measure the radioactivity in the LSC. The protein concentration of the cell lysate was also measured using a Pierce™ BCA Protein Assay Kit (Thermo Fisher Scientific, Inc.), which was used to normalize, according to the cell number, the radioactivity in the cell lysate extract. The protein assay was performed in duplicate. Each sample type was assayed in triplicate wells, and each run was performed twice. When the difference in mean uptake between OATP expressing cells and mock cells was more than 2 times, the OATP was judged to be involved in transportation of the substrate. […] Each sample type was assayed in triplicate wells.

A further data set deals with T2, mouse Oatp1a1 (Mus musculus, UniProt Q9QXZ6).
T2 sequence (Q9QXZ6 1-670): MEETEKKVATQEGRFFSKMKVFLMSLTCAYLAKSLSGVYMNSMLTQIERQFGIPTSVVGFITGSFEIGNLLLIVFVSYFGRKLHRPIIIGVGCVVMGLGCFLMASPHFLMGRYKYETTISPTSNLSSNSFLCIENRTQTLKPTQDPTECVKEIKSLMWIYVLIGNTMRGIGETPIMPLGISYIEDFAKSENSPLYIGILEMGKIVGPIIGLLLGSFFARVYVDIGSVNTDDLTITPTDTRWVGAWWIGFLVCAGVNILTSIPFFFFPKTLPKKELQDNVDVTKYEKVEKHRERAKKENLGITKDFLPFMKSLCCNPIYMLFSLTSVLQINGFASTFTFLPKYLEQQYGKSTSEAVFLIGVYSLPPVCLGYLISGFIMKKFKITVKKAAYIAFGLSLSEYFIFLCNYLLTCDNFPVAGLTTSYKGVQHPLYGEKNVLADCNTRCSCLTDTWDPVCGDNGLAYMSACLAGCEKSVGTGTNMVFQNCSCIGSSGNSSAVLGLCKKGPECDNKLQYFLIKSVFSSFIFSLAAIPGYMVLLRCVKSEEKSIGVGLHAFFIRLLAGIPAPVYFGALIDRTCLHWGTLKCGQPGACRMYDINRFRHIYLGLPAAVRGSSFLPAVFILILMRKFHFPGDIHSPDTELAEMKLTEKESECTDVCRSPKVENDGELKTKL
The experiment in a line: Uptake assay for radiolabeled substrates, mouse Oatp1a1 expressing 293FT cells. The data set is classed as in vitro ADME. Details: expressed in transfected cells; host or cells: 293FT cells. The conditions noted are these: for Ratio of uptake amount relative to the uptake into mock cells: 10‐min incubation. As for the experimental part:
as §1, §2

For the next data set, the target named is T3, mouse Oatp2b1 (Mus musculus, UniProt Q8BXB6).
T3 sequence (Q8BXB6 1-683): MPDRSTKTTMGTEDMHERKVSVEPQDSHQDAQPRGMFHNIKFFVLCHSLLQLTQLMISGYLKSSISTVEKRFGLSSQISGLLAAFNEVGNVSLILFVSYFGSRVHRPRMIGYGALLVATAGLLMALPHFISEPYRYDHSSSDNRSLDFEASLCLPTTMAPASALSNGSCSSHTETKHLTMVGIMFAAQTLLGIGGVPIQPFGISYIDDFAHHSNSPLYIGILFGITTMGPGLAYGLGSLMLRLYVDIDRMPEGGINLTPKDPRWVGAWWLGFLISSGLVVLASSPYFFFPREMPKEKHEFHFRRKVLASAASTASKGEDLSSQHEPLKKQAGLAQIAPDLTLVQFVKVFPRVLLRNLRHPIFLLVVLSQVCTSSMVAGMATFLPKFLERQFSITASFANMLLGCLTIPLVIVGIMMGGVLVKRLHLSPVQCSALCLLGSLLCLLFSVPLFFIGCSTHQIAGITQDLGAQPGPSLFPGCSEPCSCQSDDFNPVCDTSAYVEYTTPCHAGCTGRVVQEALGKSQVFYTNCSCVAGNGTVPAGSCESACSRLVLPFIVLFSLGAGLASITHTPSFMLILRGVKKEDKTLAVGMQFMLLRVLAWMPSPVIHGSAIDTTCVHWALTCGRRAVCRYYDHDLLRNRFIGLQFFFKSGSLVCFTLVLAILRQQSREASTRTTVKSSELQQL
The experiment in a line: Uptake assay for radiolabeled substrates, mouse Oatp2b1 expressing 293FT cells. Particulars: 10‐min incubation. The procedure: as §1, §2

On to `C[C@]12CC[C@@H]3c4ccc(OS(=O)(=O)O)cc4CC[C@H]3[C@@H]1CCC2=O` [E3S, Estrone 3‐sulfate], for which the “Ratio of uptake amount relative to the uptake into mock cells” value stood at 1.1 at mouse Oatp1a4 (Run_1); 1.1 on mouse Oatp1a4 (Run_2); 23.4 at mouse Oatp1a1 (Run_1); 34.4 at mouse Oatp1a1 (Run_2); 2.9 on mouse Oatp2b1 (Run_1); 3.9 at mouse Oatp2b1 (Run_2).

As to `C[C@]12CC[C@@H]3c4ccc(O)cc4CC[C@H]3[C@@H]1CC[C@@H]2O[C@@H]1O[C@H](C(=O)O)[C@@H](O)[C@H](O)[C@H]1O` [E217βG, Estradiol 17β‐D‐glucuronide], the “Ratio of uptake amount relative to the uptake into mock cells” value at mouse Oatp1a4 (Run_1) worked out at 3.7; at mouse Oatp1a4 (Run_2), 3.3; on mouse Oatp1a1 (Run_1), 84.9; on mouse Oatp1a1 (Run_2), 62.2; on mouse Oatp2b1 (Run_1), 4.1; on mouse Oatp2b1 (Run_2), 2.0. Moreover, the “Uptake, times higher than in mock cells” value at mouse Oatp1a1 was greater than 50 times.

On to `Cn1c(C(F)(F)F)cc(=O)n(-c2cc(Oc3cccnc3OCC(=O)O)c(Cl)cc2F)c1=O` [S‐3100‐CA], for which the “Ratio of uptake amount relative to the uptake into mock cells” value amounted to 8.1 at mouse Oatp1a4 (Run_1); 4.2 on mouse Oatp1a4 (Run_2); 3.3 on mouse Oatp1a1 (Run_1); 4.3 at mouse Oatp1a1 (Run_2); 2.4 at mouse Oatp2b1 (Run_1); 4.0 on mouse Oatp2b1 (Run_2).
